# Results from patent US20250025473A1 (priority 2021, published 2025).
# Columns and labels:
# [1] = tested on: phosphorylated Akt (pAkt T308); type: cell-based, human
# [2] = tested on: Akt, PDPK1, PLCγ; assay: HSV-induced phosphorylation of Akt, PDPK1 and PLCγ (confocal, biotinylation of cell surface proteins); type: cell-based, human; settings: 10 μM, HaCat
# [3] = tested on: VSV-EBOV-GP; type: cell-based
# [4] = molecular target: T1, AKT3 (Homo sapiens, UniProt Q9Y243); assay: HotSpot in vitro kinase assay, AKT3; type: biochemical
# T1 construct: purchased Reaction Biology Corporation
# [5] = molecular target: c-Src (Homo sapiens, UniProt P12931); assay: HotSpot in vitro kinase assay, c-Src; settings: read-out: Compound IC50, c-Src; in vitro kinase activity
# [6] = molecular target: T2, AKT1 (Homo sapiens, UniProt P31749); assay: HotSpot in vitro kinase assay, AKT1; type: biochemical
# T2 construct: purchased Reaction Biology Corporation
# [7] = molecular target: PKCd (Homo sapiens, UniProt Q05655); assay: HotSpot in vitro kinase assay, PKCd; settings: read-out: Compound IC50, PKCd; in vitro kinase activity
# [8] = tested on: HaCat cells; assay: Apoptosis assays (activated caspases, SYTOX Green, cleaved PARP-1/caspase 8)
# [9] = molecular target: ABL1 (Homo sapiens, UniProt P00519); assay: HotSpot in vitro kinase assay, ABL1; settings: read-out: Compound IC50, ABL1; in vitro kinase activity
# [10] = molecular target: Insulin Receptor (Homo sapiens, UniProt P06213); assay: HotSpot in vitro kinase assay, Insulin Receptor
# [11] = tested on: HSV-1 K26GFP; assay: HSV capsid entry, GFP+ cells by confocal imaging; settings: HaCat, CIMSS 10 μM, anti-Akt 2 μg/ml, cycloheximide 10 μg/ml
# [12] = tested on: HaCat cells; assay: Cell proliferation, ~50% confluent HaCat (Cell Titer 96 Aqueous One)
# [13] = tested on: HSV-2(G); assay: Nuclear transport of VP16 (immunoblot of nuclear extracts); settings: HaCat and primary vaginal cells, 1 h post-infection; CIMSS 10 μM, antibody 2 μg/ml
# [14] = tested on: HaCat cells; assay: Cytotoxicity/viability, confluent HaCat cells; type: cell-based, human; settings: 10 μM, fully confluent HaCat cells, up to 120 h
# Method: Results are presented as mean±SEM odu as a percentage of the DMSO control (n=2 independent experiments each conducted in duplicate for C and 1 experiment conducted in duplicate for D). Results in B-D were compared by ANOVA, *p<0.05, **p<0.01, ***p<0.001, ****p<0.0001).
# Cell proliferation and viability were determined using the Cell Titer 96® Aqueous One Solution and optical density was determined using a SpectraMax® M5e Molecular Devices multidetection microplate reader. […] The cells were then fixed and stained for activated caspases (red) and SYTOX Green (for integrity of plasma membrane) by Image-iT™ LIVE red Poly Caspase Detection kit. Nuclei were stained with Hoechst. Images were acquired by laser confocal microscope ZeissLive/DuoScan equipped with oil immersion objectives 63×1.1 and captured in an optical slice of 0.37 μm with appropriate filters. Alternatively, immunoblots were prepared and probed with antibodies to cleaved PARP-1 or cleaved caspase 8.
# [15] = tested on: HSV-2(G); assay: Synchronized HSV infection (entry kinetics) plaque assay; settings: 10 μM, HaCat, 0.5, 1, 1.5 or 2 hours post-temperature shift
# [16] = tested on: HSV-2(G); assay: HSV binding assay (gD Western blot); type: cell-based; settings: 10 μM, HaCat, 4 hours at 4° C.
# [17] = tested on: Akt, PDPK1; type: cell-based, monkey; settings: 10 μM, Vero, VSV-S, 30 and 60 minutes
# [18] = Parallel artificial membrane permeability assay (PAMPA); type: in vitro ADME; settings: 100 μM
# [19] = tested on: MDCK-MDR1 cells; settings: 5 μM
# [20] = tested on: VSV-G; type: cell-based
# [21] = tested on: PLSCR1; type: cell-based, monkey; settings: Vero, 30 minutes; drugs 10 μM each
# [22] = tested on: phosphatidylserine (PtdS) and Akt; assay: Translocation of PtdS and Akt to the outer leaflet after HSV-2 (confocal, non-permeabilized); type: cell-based, human; settings: 10 μM, HaCat, HSV-2(G)
# T2 sequence (P31749 whole entry): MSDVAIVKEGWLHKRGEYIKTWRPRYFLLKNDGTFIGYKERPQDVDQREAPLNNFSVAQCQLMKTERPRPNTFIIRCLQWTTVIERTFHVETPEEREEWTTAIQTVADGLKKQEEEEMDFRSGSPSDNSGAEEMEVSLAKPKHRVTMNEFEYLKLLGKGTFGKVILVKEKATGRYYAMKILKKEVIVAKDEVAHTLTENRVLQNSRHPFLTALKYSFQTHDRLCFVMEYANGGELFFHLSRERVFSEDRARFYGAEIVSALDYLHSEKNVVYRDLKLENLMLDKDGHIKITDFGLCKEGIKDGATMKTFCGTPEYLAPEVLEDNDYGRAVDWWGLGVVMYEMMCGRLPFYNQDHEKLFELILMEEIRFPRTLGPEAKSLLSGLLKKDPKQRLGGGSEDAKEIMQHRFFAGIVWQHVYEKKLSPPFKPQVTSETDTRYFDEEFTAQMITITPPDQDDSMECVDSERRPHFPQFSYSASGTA
# T1 sequence (Q9Y243 whole entry): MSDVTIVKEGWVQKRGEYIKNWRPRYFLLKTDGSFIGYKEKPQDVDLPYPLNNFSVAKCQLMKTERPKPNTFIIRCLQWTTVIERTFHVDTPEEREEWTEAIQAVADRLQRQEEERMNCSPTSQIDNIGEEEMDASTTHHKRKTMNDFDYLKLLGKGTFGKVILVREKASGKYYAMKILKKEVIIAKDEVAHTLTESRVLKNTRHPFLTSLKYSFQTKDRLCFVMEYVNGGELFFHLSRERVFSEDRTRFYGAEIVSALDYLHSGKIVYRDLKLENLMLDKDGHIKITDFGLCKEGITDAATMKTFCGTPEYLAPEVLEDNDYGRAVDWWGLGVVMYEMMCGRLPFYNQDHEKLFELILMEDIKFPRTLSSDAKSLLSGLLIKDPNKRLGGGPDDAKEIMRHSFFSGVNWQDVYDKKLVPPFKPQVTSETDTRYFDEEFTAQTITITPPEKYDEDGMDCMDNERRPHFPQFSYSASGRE
# Sequence of Insulin Receptor (P06213 28-1382): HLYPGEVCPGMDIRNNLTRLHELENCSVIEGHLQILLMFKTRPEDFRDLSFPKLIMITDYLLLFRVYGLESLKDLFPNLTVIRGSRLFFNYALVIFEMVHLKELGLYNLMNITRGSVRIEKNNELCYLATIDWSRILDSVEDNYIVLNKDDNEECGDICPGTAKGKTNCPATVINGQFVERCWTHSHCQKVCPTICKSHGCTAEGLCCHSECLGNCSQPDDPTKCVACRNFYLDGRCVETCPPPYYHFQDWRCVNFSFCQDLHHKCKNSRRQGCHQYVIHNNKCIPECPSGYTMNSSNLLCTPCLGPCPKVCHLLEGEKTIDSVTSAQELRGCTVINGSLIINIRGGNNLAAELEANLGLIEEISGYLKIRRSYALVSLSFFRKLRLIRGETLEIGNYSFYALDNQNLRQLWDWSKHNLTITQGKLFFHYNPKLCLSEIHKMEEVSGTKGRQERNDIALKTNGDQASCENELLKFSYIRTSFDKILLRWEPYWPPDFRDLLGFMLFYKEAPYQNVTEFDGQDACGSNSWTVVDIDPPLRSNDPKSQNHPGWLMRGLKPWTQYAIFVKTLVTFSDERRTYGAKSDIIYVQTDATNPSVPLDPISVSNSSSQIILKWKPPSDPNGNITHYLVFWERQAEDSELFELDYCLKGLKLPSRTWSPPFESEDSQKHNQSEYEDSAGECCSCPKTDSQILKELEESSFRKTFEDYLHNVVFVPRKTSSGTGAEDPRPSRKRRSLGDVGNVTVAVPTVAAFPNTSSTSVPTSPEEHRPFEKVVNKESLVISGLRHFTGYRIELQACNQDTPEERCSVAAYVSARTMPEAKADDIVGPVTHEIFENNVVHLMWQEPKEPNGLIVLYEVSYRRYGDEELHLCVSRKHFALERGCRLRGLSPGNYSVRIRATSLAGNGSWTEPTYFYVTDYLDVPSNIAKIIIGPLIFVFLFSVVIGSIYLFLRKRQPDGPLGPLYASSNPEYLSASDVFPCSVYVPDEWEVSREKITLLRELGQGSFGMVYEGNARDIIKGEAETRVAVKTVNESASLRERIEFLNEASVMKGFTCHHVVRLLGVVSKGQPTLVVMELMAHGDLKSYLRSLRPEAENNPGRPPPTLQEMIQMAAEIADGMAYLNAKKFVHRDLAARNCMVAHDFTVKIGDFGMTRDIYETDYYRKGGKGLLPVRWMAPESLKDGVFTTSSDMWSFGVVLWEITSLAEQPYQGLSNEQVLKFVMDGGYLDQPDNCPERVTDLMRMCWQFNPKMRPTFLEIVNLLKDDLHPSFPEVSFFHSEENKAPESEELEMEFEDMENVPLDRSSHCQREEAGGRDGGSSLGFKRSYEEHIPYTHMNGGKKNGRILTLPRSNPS
# Sequence of ABL1 (P00519 whole entry): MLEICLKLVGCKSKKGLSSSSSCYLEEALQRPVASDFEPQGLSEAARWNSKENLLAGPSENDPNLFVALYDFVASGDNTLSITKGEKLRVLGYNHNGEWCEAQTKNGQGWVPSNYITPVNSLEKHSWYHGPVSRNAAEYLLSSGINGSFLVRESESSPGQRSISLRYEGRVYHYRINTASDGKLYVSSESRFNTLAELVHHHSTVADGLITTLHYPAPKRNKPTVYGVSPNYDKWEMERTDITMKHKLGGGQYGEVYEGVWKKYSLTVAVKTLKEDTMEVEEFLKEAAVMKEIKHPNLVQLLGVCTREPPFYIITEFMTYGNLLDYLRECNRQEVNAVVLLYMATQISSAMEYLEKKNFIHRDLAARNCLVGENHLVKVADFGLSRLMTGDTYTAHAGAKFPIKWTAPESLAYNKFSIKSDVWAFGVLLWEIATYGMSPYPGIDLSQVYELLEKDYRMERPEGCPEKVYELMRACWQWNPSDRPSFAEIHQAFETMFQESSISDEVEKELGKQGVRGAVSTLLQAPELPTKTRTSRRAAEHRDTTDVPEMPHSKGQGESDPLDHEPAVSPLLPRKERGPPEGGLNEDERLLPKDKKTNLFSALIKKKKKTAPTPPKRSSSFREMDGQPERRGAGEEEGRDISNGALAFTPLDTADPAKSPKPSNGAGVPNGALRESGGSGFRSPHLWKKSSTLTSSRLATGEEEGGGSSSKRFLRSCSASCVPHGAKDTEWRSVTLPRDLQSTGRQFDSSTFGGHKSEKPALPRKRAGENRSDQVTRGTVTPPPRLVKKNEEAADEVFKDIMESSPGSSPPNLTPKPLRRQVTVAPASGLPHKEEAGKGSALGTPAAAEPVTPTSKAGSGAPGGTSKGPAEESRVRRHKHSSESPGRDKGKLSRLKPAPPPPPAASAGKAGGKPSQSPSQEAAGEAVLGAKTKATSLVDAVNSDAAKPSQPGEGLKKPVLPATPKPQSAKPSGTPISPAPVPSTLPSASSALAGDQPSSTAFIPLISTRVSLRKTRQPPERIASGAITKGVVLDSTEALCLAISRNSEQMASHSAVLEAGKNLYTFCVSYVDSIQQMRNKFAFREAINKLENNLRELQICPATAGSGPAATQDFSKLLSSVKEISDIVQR
# Sequence of c-Src (P12931 whole entry): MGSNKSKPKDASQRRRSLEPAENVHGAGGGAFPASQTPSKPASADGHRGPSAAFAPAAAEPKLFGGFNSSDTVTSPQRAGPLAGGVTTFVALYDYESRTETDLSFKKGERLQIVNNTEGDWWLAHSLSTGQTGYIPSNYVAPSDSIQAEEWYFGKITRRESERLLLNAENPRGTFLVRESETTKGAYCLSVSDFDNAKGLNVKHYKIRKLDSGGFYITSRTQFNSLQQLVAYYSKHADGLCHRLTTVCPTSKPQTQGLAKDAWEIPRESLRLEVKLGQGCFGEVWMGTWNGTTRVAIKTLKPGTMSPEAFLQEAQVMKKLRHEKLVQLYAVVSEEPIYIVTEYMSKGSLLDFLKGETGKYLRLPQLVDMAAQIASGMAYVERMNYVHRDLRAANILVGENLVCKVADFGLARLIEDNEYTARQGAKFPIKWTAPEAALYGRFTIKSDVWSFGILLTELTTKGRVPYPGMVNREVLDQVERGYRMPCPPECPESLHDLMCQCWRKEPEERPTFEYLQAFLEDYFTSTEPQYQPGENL
# Sequence of PKCd (Q05655 whole entry): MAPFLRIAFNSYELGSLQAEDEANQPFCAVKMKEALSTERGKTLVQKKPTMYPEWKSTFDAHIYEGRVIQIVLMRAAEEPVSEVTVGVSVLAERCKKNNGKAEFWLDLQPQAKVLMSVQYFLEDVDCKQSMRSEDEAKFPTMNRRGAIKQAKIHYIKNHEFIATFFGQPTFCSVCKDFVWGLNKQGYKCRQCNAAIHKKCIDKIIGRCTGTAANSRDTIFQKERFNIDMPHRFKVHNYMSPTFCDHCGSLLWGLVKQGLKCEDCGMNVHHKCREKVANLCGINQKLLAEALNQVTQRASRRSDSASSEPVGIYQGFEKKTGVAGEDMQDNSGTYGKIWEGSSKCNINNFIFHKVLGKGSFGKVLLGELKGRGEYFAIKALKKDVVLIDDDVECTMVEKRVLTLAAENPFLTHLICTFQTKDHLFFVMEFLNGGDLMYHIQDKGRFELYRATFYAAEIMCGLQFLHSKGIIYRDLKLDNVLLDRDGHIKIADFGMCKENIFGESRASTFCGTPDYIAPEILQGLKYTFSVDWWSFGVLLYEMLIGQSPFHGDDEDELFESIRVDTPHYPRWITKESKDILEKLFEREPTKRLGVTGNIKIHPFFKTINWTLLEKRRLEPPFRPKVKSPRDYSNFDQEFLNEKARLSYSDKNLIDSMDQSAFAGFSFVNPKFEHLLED
smiles,measurement,setting,value
CO[C@@H]1[C@H](N(C)C(=O)CCC(=O)NCc2cn(CCCS(=O)(=O)[O-])nn2)C[C@H]2O[C@]1(C)n1c3ccccc3c3c4c(c5c6ccccc6n2c5c31)C(=O)NC4.[Na+] [CIMSS],"concentration without inhibition of intracellular Akt phosphorylation in response to insulin, relative to the parental drug",[1],100-1000 fold
same,dose inhibiting intracellular Akt phosphorylation in response to insulin,"[1]; HaCat, 10 μM insulin, permeabilized cells",> 100 µM
same,pPDPK1 and pPLCγ signal by confocal microscopy,[2]; 15 and 30 minutes following viral infection,inhibited
same,"phosphorylation of PDPK1, PLCγ and Akt in the membrane fraction","[2]; 15 minutes of HSV exposure, biotinylation",reduced
same,"VSV-EBOV-GP infection, percentage of GFP+ cells",[3],no effect
same,IC50,"[4]; in vitro kinase activity, read-out: Compound IC50, AKT3",0.157 µM
same,inhibition at 10 µM,[4]; read-out: inhibition of Akt3,> 75%
same,IC50,[5],0.0119 µM
same,"fold less effective than staurosporine (IC50), Akt1",[6],~230 fold
same,IC50,"[6]; in vitro kinase activity, read-out: Compound IC50, AKT1",0.461 µM
same,inhibition at 10 µM,[6]; read-out: inhibition of Akt1,> 75%
same,IC50,[7],0.00364 µM
same,induction of apoptosis (SYTOX Green and anti-caspase staining),"[8]; 10 μM, 6 or 24 hours",did not induce apoptosis
same,PARP-1 or caspase 8 cleavage,"[8]; 0.1, 1 or 10 μM, 8 hours",did not induce PARP-1 or caspase 8 cleavage
same,IC50,[9],0.143 µM
same,"fold less effective than staurosporine (IC50), insulin receptor",[10],~40 fold
same,IC50,"[10]; read-out: Compound IC50, Insulin Receptor, in vitro kinase activity",0.803 µM
same,percentage of GFP+ cells,[11]; 4 h post-temperature shift,significantly reduced
same,percentage of GFP+ cells,[11]; one hour post temperature shift,significantly decreased
same,lowest concentration significantly inhibiting HaCat cell growth,[12]; 24 h,no significant inhibition
same,lowest concentration significantly inhibiting HaCat cell growth,[12]; 72 h,100 µM
same,nuclear transport of VP-16,[13],inhibited
same,cytotoxicity,[14],little or no cytotoxicity
same,"viral plaque formation, synchronized infection",[15],significant reduction
same,HSV binding to cells,[16],did not block
same,"extracellular phosphorylation of Akt (biotinylation, pAktT308)",[17],inhibited
same,"Recover %, PAMPA",[18],83%
same,"Recover %, MDCK Transport",[19],96%
same,"VSV-G infection, percentage of GFP+ cells",[20],no effect
same,phosphorylation of PLSCR1 after VSV-S,[21],preserved
same,translocation of PtdS and Akt to the outer leaflet of the plasma membrane,[22],did not block
